This is an account of results in patent publication US9290501B2, “Methods, assays and compounds for treating bacterial infections by inhibiting methylthioinosine phosphorylase” (Albert Einstein College of Medicine, Inc., priority 2010, dated 2016).

Values joined by “and” are separate entries in the source; they are usually repeats but may differ in a detail not shown here. Identical values can stand only once. Like-named read-outs stand apart in the source and are kept apart here.

Assay [1] deals with T1, PaMTIP (Pseudomonas aeruginosa (strain ATCC 15692 / DSM 22644 / CIP 104116 / JCM 14847 / LMG 12228 / 1C / PRS 101 / PAO1), UniProt Q9HZK1). The experiment in a line: biochemical. The procedure:
Assays for slow-onset inhibitors were carried out by adding 1 nM PaMTIP into reaction mixtures at 25° C. containing 100 mM Hepes, pH 7.4, 100 mM phosphate, pH 7.4, 2 mM MTI, 5 mM DTT, 0.5 unit of xanthine oxidase and variable inhibitor concentration. Inhibitors were present at >10 times the enzyme concentration, required to simplify data analysis (24). Assays for MTA inhibition used 200 μM MTI. Controls having no enzyme and no inhibitor were included in all of the inhibition assays. Inhibition constants were obtained by fitting initial rates with variable inhibitor concentrations to equation (1) using GraFit 5 (Erithacus Software):
[formula] where vi is the initial rate in the presence of inhibitor, vo is the initial rate in the absence of inhibitor, Km is the Michaelis constant for MTI, [S] and [I] are MTI and inhibitor concentrations, respectively, and Ki is the inhibition constant. Slow-onset inhibitors display a second phase of tighter binding after reaching a thermodynamic equilibrium with the enzyme. The equilibrium constant for the second binding phase is indicated as Ki*. This constant was obtained by fitting initial final rates and inhibitor concentrations to equation (1) using GraFit 5 (22).

Assay [2] concerns the target T2, PfPNP (Plasmodium falciparum (isolate 3D7), UniProt Q8I3X4). As to conditions: read-out: dissociation constants; cited from earlier work.
Assay [3] has as its target T1, PaMTIP. The format is biochemical. The settings on record: for fold decreases of Kcat/Km in comparison with those of MTI / kcat/Km: PaMTIP; for Km / kcat: PaMTIP phosphorolysis, 100 mM phosphate, pH 7.4, 25° C. The procedure: Product formation was monitored by conversion of hypoxanthine to uric acid by xanthine oxidase (22). The extinction coefficient of this assay was 12.9 mM^−1cm^−1 at 293 nm. Enzyme activity with adenosine or MTA as substrates was determined by conversion of adenine to 2,8-dihydroxyadenine using the same coupling enzyme (23). Its extinction coefficient at 293 nm was 15.2 mM^−1cm^−1. Reactions were carried out at 25° C. in 1 cm cuvettes, 1 mL volumes of 100 mM Hepes, pH 7.4, 100 mM phosphate, pH 7.4, variable concentrations of nucleoside substrate, 0.5 unit of xanthine oxidase, 5 mM DTT, and appropriate amounts of purified MTIP. Reactions were initiated by addition of enzyme and the initial rates were monitored with a CARY 300 UV-Visable spectrophotometer. Control rates (no PaMTIP) were subtracted from initial rates. Km and kcat values for PaMTIP were obtained by fitting initial rates to the Michaelis-Menten equation using GraFit 5 (Erithacus Software).

The target in assay [4] is PfADA (Plasmodium falciparum (isolate 3D7), UniProt Q8IJA9). The settings on record: PfADA deamination; cited from earlier work.
Assay [5] concerns the target T2, PfPNP. As to conditions: cited from earlier work.
Setting [6] is: initial binding phase, 2 mM MTI, 25° C., pH 7.4, values ± S.E., read-out: Ki.
The mark [7] stands for this setting: second tighter binding phase of slow-onset inhibition, values ± S.E., read-out: Ki*.

Regarding `CSC[C@@]1(O)CN(Cc2c[nH]c3c(=O)[nH]cnc23)C[C@@H]1O` [4′-HO-MT-DADMe-ImmH, (3S,4R)-1-[(9-deazahypoxanthin-9-yl)methyl]-3,4-dihydroxy-4-methylthiomethylpyrrolidine], the “inhibitor potency in words” value in assay [1] is on record as “nanomolar inhibitor”.

As for `CSC[C@H]1CN(Cc2c[nH]c3c(=O)[nH]cnc23)C[C@@H]1O` [MT-DADMe-ImmH, (3R,4S)-1-[(9-deazahypoxanthin-9-yl)methyl]-3-hydroxy-4-(methylthiomethyl)pyrrolidine], the Ki in assay [1] (Ki*, second tighter binding phase of slow-onset inhibition, values ± S.E.) is 0.34 ± 0.02 nM; in assay [1] (setting [6]), 0.8 ± 0.1 nM; in assay [2], 0.9 nM.

Consider `CSCC(CO)NCc1c[nH]c2c(=O)[nH]cnc12` (stereo not shown) [MT-SerMe-ImmH], for which, in assay [1] (setting [7]), the Ki stood at 0.096 nM.

In assay [1] (Ki), `CSCC(CO)(CO)NCc1c[nH]c2c(=O)[nH]cnc12` [MT-TrisMe-ImmH, 7-((1,3-dihydroxy-2-(methylthiomethyl)propan-2-ylamino)methyl)-3H-pyrrolo[3,2-d]pyrimidin-4(5H)-one] had a Ki of 19 nM.

In the case of `O=c1[nH]cnc2c([C@@H]3N[C@H](CSc4ccccc4)[C@@H](O)[C@H]3O)c[nH]c12` [PhT-ImmH], in assay [1], the mode of inhibition entry is “slow-onset, tight-binding inhibition”. Moreover, the values for the Ki in assay [1] (setting [6]) and in assay [1] (setting [7]) were 0.66 ± 0.09 nM and 0.035 nM, respectively.

Consider `CCCSC[C@H]1CN(Cc2c[nH]c3c(=O)[nH]cnc23)C[C@@H]1O` [PrT-DADMe-ImmH], for which the “fold tighter binding / enhanced potency relative to MT-DADMe-ImmH” value in assay [1] worked out at 4 fold.

On to `Nc1ncnc2c1ncn2[C@@H]1O[C@H](CO)[C@@H](O)[C@H]1O` [adenosine], for which, in assay [3], the “fold decreases of Kcat/Km in comparison with those of MTI” value is given as 750 fold; the kcat/Km was 2400 M⁻¹ s⁻¹; the Km was determined as 23 ± 1 µM; the kcat is 0.0549 s⁻¹ and 0.0549 ± 0.0005 s⁻¹. The kcat/Km in assay [3] (Table 2) is reported as 2.4 ± 0.1 × 10^3 M^−1s^−1. In addition, the kcat/Km in assay [4] is 62000 M⁻¹ s⁻¹.

In the case of `OC[C@H]1O[C@@H](n2cnc3c(O)ncnc32)[C@H](O)[C@@H]1O` [inosine], in assay [3], the “fold decreases of Kcat/Km in comparison with those of MTI” value came to 300 fold; the kcat/Km was found to be 6300 M⁻¹ s⁻¹; the Km amounted to 90 ± 20 µM; the kcat is 0.57 s⁻¹ and 0.57 ± 0.04 s⁻¹. For the same molecule, the kcat/Km in assay [3] (Table 2) was 6 ± 1 × 10^3 M^−1s^−1. The kcat/Km in assay [5] is 360000 M⁻¹ s⁻¹.
